Test results from patent US20260306642A1, “STAT DEGRADERS AND USES THEREOF” (Recludix Pharma, Inc., priority 2023, published 2026).
pIC50: −log10 of the molar value.

Assays:
STAT3 = biological target: T1, STAT3 (Homo sapiens, UniProt P40763); assay: STAT3 Fluorescence Polarization (FP) Assay; type: binding
T1 construct: Recombinant STAT3 protein (STAT3(G127-I722))
Description: An FP assay was developed to determine IC50 values for test substances.
Recombinant STAT3 protein (STAT3(G127-I722)) at 25 nM was combined with a fluorescently labeled, phosphotyrosine peptide probe (5-FAM-GpYLPQTV-NH2) at 2 nM in FP buffer (10 mM HEPES pH 7.4, 50 mM NaCl, 1 mM EDTA, 0.05% Tween 20, 2 mM DTT). 50 μL of STAT3-probe mixture was added to serial diluted compounds in black, 96-well plates (Greiner BioOne 655076) to a final concentration of 1% DMSO. Reaction components were mixed, and FP was measured after 45-minute incubation at room temperature using a Tecan Spark multimode plate reader. FP signal (mP) was plotted against the log concentration of the test substances and IC50 values were calculated by nonlinear regression analysis using GraphPad Prism software. For STAT3 FP assay, A=≤100 nM; B=>100-1000 nM; C=>1-10 μM; and D=>10 μM.

STAT6 = biological target: T2, STAT6 (Homo sapiens, UniProt P42226); assay: STAT6 Fluorescence Polarization (FP) Assay; type: binding
T2 construct: Recombinant STAT6 protein (STAT6(W123-T658))
T2 sequence (P42226 123-658): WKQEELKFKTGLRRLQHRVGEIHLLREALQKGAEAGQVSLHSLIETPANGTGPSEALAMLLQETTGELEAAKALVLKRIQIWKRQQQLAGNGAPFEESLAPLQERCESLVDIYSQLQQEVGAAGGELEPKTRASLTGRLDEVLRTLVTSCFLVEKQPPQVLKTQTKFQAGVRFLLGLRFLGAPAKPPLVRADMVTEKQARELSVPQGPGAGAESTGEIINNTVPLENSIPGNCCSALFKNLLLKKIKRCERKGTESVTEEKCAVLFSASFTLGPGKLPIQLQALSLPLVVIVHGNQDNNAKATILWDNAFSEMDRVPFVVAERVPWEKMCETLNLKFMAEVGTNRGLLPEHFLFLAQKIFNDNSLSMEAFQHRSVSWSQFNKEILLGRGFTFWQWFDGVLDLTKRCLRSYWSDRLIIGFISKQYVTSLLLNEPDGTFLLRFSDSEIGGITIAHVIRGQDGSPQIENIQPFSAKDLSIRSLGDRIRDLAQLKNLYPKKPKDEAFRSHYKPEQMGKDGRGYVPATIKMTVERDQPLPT
Description: An FP assay was developed to determine IC50 values for test substances. Recombinant STAT6 protein (STAT6(W123-T658)) at 250 nM was combined with a fluorescently labeled, phosphotyrosine peptide probe (5-FAM-ApYKPFQDLI-NH2) at 2 nM in FP buffer (10 mM HEPES pH 7.4, 50 mM NaCl, 1 mM EDTA, 0.05% Tween 20, 2 mM DTT). 50 μL of STAT6-probe mixture was added to serial diluted compounds in black, 96-well plates (Greiner BioOne 655076) to a final concentration of 1% DMSO. Reaction components were mixed, and FP was measured after 45-minute incubation at room temperature using a Tecan Spark multimode plate reader. FP signal (mP) was plotted against the log concentration of the test substances and IC50 values were calculated by nonlinear regression analysis using GraphPad Prism software. For STAT6 FP assay, A=≤300 nM; B=>300-3000 nM; C=>3-30 μM; and D=>30 μM.

pSTAT6 = biological target: T3, pSTAT6 (Homo sapiens, UniProt P42226); assay: MSD-pSTAT-PBMC Assay (pSTAT6, IL-4 stimulated); type: cell-based; details: compound 3 hrs, then 1 ng/mL IL-4 10 min, pY641-STAT6, read-out: pSTAT6 IC50
T3 sequence (P42226 1-847): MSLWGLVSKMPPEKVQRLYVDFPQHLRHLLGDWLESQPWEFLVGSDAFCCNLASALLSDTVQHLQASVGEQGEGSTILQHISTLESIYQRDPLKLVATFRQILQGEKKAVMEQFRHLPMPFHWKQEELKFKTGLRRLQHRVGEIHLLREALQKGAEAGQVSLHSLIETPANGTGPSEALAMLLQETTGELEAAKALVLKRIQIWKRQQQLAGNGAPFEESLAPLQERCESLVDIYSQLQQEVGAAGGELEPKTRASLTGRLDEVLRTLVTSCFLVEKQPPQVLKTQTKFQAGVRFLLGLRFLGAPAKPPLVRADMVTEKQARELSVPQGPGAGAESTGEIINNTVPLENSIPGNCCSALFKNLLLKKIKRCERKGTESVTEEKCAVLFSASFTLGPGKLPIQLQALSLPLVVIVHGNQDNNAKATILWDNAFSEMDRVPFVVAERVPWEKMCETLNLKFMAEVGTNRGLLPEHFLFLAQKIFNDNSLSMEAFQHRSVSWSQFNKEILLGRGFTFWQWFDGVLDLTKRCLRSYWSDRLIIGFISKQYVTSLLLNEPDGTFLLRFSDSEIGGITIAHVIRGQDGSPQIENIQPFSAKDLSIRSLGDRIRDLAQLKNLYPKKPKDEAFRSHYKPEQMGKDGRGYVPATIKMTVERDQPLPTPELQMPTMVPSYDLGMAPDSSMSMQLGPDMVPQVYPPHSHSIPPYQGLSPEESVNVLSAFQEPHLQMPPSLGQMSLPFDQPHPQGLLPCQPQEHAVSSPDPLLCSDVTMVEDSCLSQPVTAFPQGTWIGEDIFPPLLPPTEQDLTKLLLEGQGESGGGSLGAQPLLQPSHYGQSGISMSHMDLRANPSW
Text: Cryopreserved Peripheral Blood Mononuclear Cells (PBMC) are from AllCells. Recombinant Human IL-4 and IL-6 are from Peprotech. Mouse monoclonal anti-STAT3 antibody, rabbit monoclonal anti-pY705-STAT3 antibody, rabbit monoclonal Anti-pY641-STAT6 antibody, and lysis buffer are from Cell Signaling Technology (CST). Mouse monoclonal anti-STAT6 antibody is from BioLegend. Assay plates, blocker, and anti-rabbit secondary antibody are from Meso Scale Discovery (MSD).
Cryopreserved PBMCs were thawed out and allowed to recover overnight in IMDM+10% heat-inactivated FBS prior to plating 50,000 (STAT3) or 25,000 (STAT6) cells per well in 96-well U-bottom tissue culture plates. Cells were treated with compound for 3 hrs, then stimulated with 10 ng/mL IL-6 (STAT3) or 1 ng/mL IL-4 (STAT6) for 10 min. Cells were then spun down and washed with ice-cold PBS prior to lysing the cell pellet with 1× lysis buffer (CST) with 1× HALT protease and phosphatase inhibitor cocktail (Thermo). Lysates were transferred to and incubated overnight at 4° C. with shaking in QuickPlex 96-well high bind assay plates (MSD) pre-coated overnight with 30 μL per well of […] mouse monoclonal anti-STAT3 antibody (STAT3) or 2 μg/mL mouse monoclonal anti-STAT6 antibody (STAT6) in 1× PBS, and pre-blocked for 1 hour with 3% Blocker-A (MSD). Captured protein in the assay plates were then washed and probed with 25 μL per well of […] rabbit monoclonal anti-pY705-STAT3 antibody (STAT3) or […] rabbit monoclonal Anti-pY641-STAT6 antibody (STAT6) in 1% Blocker-A for 1 hour at room temperature with shaking, then washed and probed with 25 ul per well of 1 ug/ml Sulfo-TAG Labeled Goat Anti-Rabbit Antibody (MSD) in 1% Blocker-A for 1 hour at room temperature with shaking. Assay plates were then washed and 150 μL of 1× Read Buffer-T (MSD) was added to each well prior to reading on an SQ120 MSD Plate Reader. Assay signal from each sample was subtracted by the signal from unstimulated control wells and normalized to DMSO control wells. IC50 values were calculated using Graph Pad Prism Dose-Response Nonlinear Regression with variable slope. For both pSTAT3 and pSTAT6 A=≤100 nM; B=>100-1000 nM; C=>1000-3000 nM; and D=>3 μM.

T1 sequence (P40763 127-722): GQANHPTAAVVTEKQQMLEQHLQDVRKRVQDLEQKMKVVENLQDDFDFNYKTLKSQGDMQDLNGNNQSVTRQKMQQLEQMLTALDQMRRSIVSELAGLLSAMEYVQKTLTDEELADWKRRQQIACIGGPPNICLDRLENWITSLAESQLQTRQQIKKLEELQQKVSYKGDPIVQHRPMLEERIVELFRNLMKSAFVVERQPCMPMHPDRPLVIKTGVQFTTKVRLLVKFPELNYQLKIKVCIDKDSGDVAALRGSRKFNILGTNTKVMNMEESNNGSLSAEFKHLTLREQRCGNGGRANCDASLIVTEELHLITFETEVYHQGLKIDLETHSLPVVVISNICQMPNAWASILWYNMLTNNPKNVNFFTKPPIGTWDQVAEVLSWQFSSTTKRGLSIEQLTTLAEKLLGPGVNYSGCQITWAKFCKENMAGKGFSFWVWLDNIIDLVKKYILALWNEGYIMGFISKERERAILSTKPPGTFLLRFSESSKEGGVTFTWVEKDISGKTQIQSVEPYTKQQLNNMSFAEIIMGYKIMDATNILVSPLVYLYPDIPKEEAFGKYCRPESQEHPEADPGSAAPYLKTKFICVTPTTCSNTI

pIC50 (STAT3) | pIC50 (STAT6) | pIC50 (pSTAT6) | SMILES
5.00 to 6.00 | 5.52 to 6.52 | < 5.52 | O=C1CCC(c2ccc(OCCCCCOc3cc([C@@H]4CN(C(=O)[C@@H]5CC[C@@H]6CCCC[C@H](NC(=O)c7cc8cc(C(F)(F)P(=O)(O)O)ccc8s7)C(=O)N65)C5(CC5)C4)ccn3)cc2)C(=O)N1 (stereo partly drawn) [Compound 19, ((2-(((3S,6S,10aS)-3-((6R)-6-(2-((5-(4-(2,6-dioxopiperidin-3-yl)phenoxy)pentyl)oxy)pyridin-4-yl)-4-azaspiro[2.4]heptane-4-carbonyl)-5-oxodecahydropyrrolo[1,2-a]azocin-6-yl)carbamoyl)benzo[b]thiophen-5-yl)difluoromethyl)phosphonic acid]
6.00 to 7.00 | > 6.52 | 5.52 to 6.00 | N#CC1CN(C(=O)C2CCC3CCCCC(NC(=O)c4cc5cc(C(F)(F)P(=O)(O)O)ccc5s4)C(=O)N32)CC1c1cccc(N2CCN(c3ccc4c(c3)[nH]c(=O)n4C3CCC(=O)NC3=O)CC2)c1 [Compound 22, ((2-(((3S,6S,10aS)-3-((rel-3S,4R)-3-cyano-4-(3-(4-(1-(2,6-dioxopiperidin-3-yl)-2-oxo-2,3-dihydro-1H-benzo[d]imidazol-5-yl)piperazin-1-yl)phenyl)pyrrolidine-1-carbonyl)-5-oxodecahydropyrrolo[1,2-a]azocin-6-yl)carbamoyl)benzo[b]thiophen-5-yl)difluoromethyl)phosphonic acid]
5.00 to 6.00 | 5.52 to 6.52 | < 5.52 | O=C1CCC(n2c(=O)[nH]c3cc(N4CCC(n5ccc([C@@H]6CN(C(=O)[C@@H]7CC[C@@H]8CCCC[C@H](NC(=O)c9cc%10cc(C(F)(F)P(=O)(O)O)ccc%10s9)C(=O)N87)C7(CC7)C6)cc5=O)CC4)ccc32)C(=O)N1 (stereo partly drawn) [Compound 24, ((2-(((3S,6S,10aS)-3-((6R)-6-(1-(1-(1-(2,6-dioxopiperidin-3-yl)-2-oxo-2,3-dihydro-1H-benzo[d]imidazol-5-yl)piperidin-4-yl)-2-oxo-1,2-dihydropyridin-4-yl)-4-azaspiro[2.4]heptane-4-carbonyl)-5-oxodecahydropyrrolo[1,2-a]azocin-6-yl)carbamoyl)benzo[b]thiophen-5-yl)difluoromethyl)phosphonic acid]

Continued, molecule first:

SMILES | pIC50 (STAT3) | pIC50 (STAT6) | pIC50 (pSTAT6)
O=C1CCC(c2ccc(OCCCCCn3ccc([C@@H]4CN(C(=O)[C@@H]5CC[C@@H]6CCCC[C@H](NC(=O)c7cc8cc(C(F)(F)P(=O)(O)O)ccc8s7)C(=O)N65)C5(CC5)C4)cc3=O)cc2)C(=O)N1 (stereo partly drawn) [Compound 17, ((2-(((3S,6S,10aS)-3-((6R)-6-(1-(5-(4-(2,6-dioxopiperidin-3-yl)phenoxy)pentyl)-2-oxo-1,2-dihydropyridin-4-yl)-4-azaspiro[2.4]heptane-4-carbonyl)-5-oxodecahydropyrrolo[1,2-a]azocin-6-yl)carbamoyl)benzo[b]thiophen-5-yl)difluoromethyl)phosphonic acid] | 5.00 to 6.00 | > 6.52 | 5.52 to 6.00
N#CC1CN(C(=O)C2CCC3CCCCC(NC(=O)c4cc5cc(C(F)(F)P(=O)(O)O)ccc5s4)C(=O)N32)CC1c1cccc(OCCCCCC#Cc2cccc3c2CN(C2CCC(=O)NC2=O)C3=O)c1 [Compound 13, ((2-(((3S,6S,10aS)-3-((rel-3S,4R)-3-cyano-4-(3-((7-(2-(2,6-dioxopiperidin-3-yl)-1-oxoisoindolin-4-yl)hept-6-yn-1-yl)oxy)phenyl)pyrrolidine-1-carbonyl)-5-oxodecahydropyrrolo[1,2-a]azocin-6-yl)carbamoyl)benzo[b]thiophen-5-yl)difluoromethyl)phosphonic acid] | 6.00 to 7.00 | > 6.52 | < 5.52
O=C1CCC(N2Cc3c(C#CCCCCCCn4ccc([C@@H]5CN(C(=O)[C@@H]6CC[C@@H]7CCCC[C@H](NC(=O)c8cc9cc(C(F)(F)P(=O)(O)O)ccc9s8)C(=O)N76)C6(CC6)C5)cc4=O)cccc3C2=O)C(=O)N1 (stereo partly drawn) [Compound 5, ((2-(((3S,6S,10aS)-3-((6R)-6-(1-(8-(2-(2,6-dioxopiperidin-3-yl)-1-oxoisoindolin-4-yl)oct-7-yn-1-yl)-2-oxo-1,2-dihydropyridin-4-yl)-4-azaspiro[2.4]heptane-4-carbonyl)-5 oxodecahydropyrrolo[1,2-a]azocin-6-yl)carbamoyl)benzo[b]thiophen-5-yl)difluoromethyl)phosphonic acid] | 5.00 to 6.00 | 5.52 to 6.52 | 6.00 to 7.00
